The series is described as follows: Determination of bio-accumulation: urinary clearance pharmacokinetic study in rats. As to conditions: for Compound-related Effects: 73 micro Moles per kg oral gavage, clinical signs and gross necropsy 96 hours post-dose; for T½: renal elimination half-life, urine by fluorine NMR, exponential curve fitting.
The mark [1] stands for this setting: recovery of administered amount in urine after 96 h, 73 micro Moles per kg, oral gavage.
[2] abbreviates: 73 micro Moles per kg, oral gavage.
Setting [3] is: no parent compound in urine, based on elimination of the major metabolite C3F7-O-CHFCOO-, 73 micro Moles per kg, oral gavage.

Marks after values point to notes of the source that are not given here.

On to `N.O=C(O)C(F)(F)C(F)(F)OC(F)(F)C(F)(F)C(F)(F)C(F)(F)F` [Compound 9, C4F9—O—CF2—CF2—COONH4], for which the “Compound-related Effects” value was “Hepatomegaly”. Further, under setting [1], the “% Recovery (96 h)” value turned out to be 42%. In addition, under setting [2], the “T½” value was 31 h.

For the compound `N.O=C(O)C(F)(F)C(F)OC(F)(F)C(F)(F)C(F)(F)F` (stereo not shown) [Compound 13, C3F7—O—CFH—CF2COONH4], under setting [1], the “% Recovery (96 h)” value is recorded as 94%. In addition, the “T½” value under setting [2] was 11 h.

`N.O=C(O)C(F)(F)OC(F)(F)OC(F)(F)OC(F)(F)F` [Compound 3, CF3—OCF2—OCF2—OCF2—COONH4]: the “% Recovery (96 h)” value under setting [1] turned out to be 100%. Also, the “T½” value under setting [2] worked out at 12 h.

As to `N.O=C(O)C(F)(F)OC(F)(F)OC(F)(F)F` [Compound 2, CF3—OCF2—O—CF2—COONH4], the “% Recovery (96 h)” value under setting [1] stood at 96%. Besides, the “T½” value under setting [2] is reported as 12 h.

Turning to `N.O=C(O)C(F)(F)C(F)(F)OC(F)(F)C(F)(F)C(F)(F)F` [Compound 8, C3F7—O—CF2—CF2—COONH4], the “% Recovery (96 h)” value under setting [1] is given as 82%. Further, the “T½” value under setting [2] is on record as 12 h.

Turning to `N.O=C(O)C(F)(F)C(F)OC(F)(F)C(F)(F)C(F)(F)OC(F)(F)F` (stereo not shown) [Compound 11, CF3—O—CF2—CF2—CF2—O—CHF—CF2—COONH4], the “% Recovery (96 h)” value under setting [1] was determined as 84%. The “T½” value under setting [2] stood at 12 h.

Regarding `N.O=C(O)C(F)(F)C(F)(F)C(F)(F)C(F)(F)C(F)(F)OC(F)C(F)(F)F` (stereo not shown) [Compound 14, CF3—CFH—O—(CF2)5—COONH4], the “Compound-related Effects” value is reported as “Hepatomegaly”. Moreover, the “% Recovery (96 h)” value under setting [1] is reported as 32%. Further, under setting [2], the “T½” value is 24 h.

Turning to `N.O=C(O)C(F)(F)C(F)(F)OC(F)(F)F` [Compound 6, CF3—O—CF2—CF2—COONH4], the “% Recovery (96 h)” value under setting [1] is reported as 100%. The “T½” value under setting [2] was 11 h.

Regarding `N.O=C(O)C(F)(F)OC(F)(F)C(F)(F)C(F)(F)OC(F)(F)F` [Compound 1, CF3—O—(CF2)3—O—CF2—COONH4], the “% Recovery (96 h)” value under setting [1] worked out at 73%.

Turning to `N.O=C(O)C(F)OC(F)(F)C(F)(F)C(F)(F)OC(F)(F)F` (stereo not shown) [Compound 12, CF3—O—CF2—CF2—CF2—O—CHF—COONH4], the “% Recovery (96 h)” value under setting [1] is listed as 95%. The “T½” value under setting [2] is given as 11 h.

As to `N.O=C(O)C(F)(F)OC(F)(F)C(F)(OC(F)(F)C(F)(F)C(F)(F)F)C(F)(F)F` (stereo not shown) [Compound C-3, CF3CF2CF2OCF(CF3)CF2OCF2COONH4, reference compound], the “Compound-related Effects” value is “Hepatomegaly”. Further, under setting [1], the “% Recovery (96 h)” value came out at 5%. Also, the “T½” value under setting [2] is on record as 95 h.

Regarding `N.O=C(O)C(F)(F)C(F)(F)C(F)(F)C(F)(F)C(F)(F)C(F)(F)C(F)(F)F` [Compound C-1, C7F15COONH4, reference compound], the “Compound-related Effects” value is “Hepatomegaly”. The “% Recovery (96 h)” value under setting [1] is given as 6%. For the same compound, the “T½” value under setting [2] is roughly 550 h.

`N.O=C(O)COC(F)(F)C(F)OC(F)(F)C(F)(F)C(F)(F)F` (stereo not shown) [Compound 16, C3F7—O—CFH—CF2—O—CH2—COONH4]: under setting [3], the “% Recovery (96 h)” value was 65* % and the “T½ (h)” value is listed as 13* h.

For `N.O=C(O)C(F)(F)C(F)(F)C(F)(F)OC(F)C(F)(F)F` (stereo not shown) [Compound 15, CF3—CFH—O—(CF2)3—COONH4], under setting [1], the “% Recovery (96 h)” value came out at 95%. For the same compound, under setting [2], the “T½” value came to 8 h.

Consider `N.O=C(O)C(F)(F)C(F)(F)OC(F)(F)C(F)(F)F` [Compound 7, C2F5—O—CF2—CF2—COONH4], for which the “% Recovery (96 h)” value under setting [1] is 100%. For the same compound, the “T½” value under setting [2] stood at 10 h.

`N.O=C(O)C(F)(F)OC(F)(F)C(F)(F)C(F)(F)OC(F)(F)F` [Compound 4, CF3—(OCF2)3—OCF2—COONH4]: the “% Recovery (96 h)” value under setting [1] is recorded as 50%.

Values taken from US7795332B2, “Method of removing fluorinated carboxylic acid from aqueous liquid” (priority 2005, dated 2010).
